The results in this text go back to ChEMBL document CHEMBL1130052, “Substituted [(4-phenylpiperazinyl)-methyl]benzamides: selective dopamine D4 agonists” (J Med Chem, 1997).

For one assay, the target named is D(2) dopamine receptor (Homo sapiens, UniProt P14416). Nature of the assay: Binding affinity for human Dopamine receptor D2 expressed in CHO K1 transfected cells using [3H]spiperone as radioligand. It counts as cell-based.
The next assay concerns the target T1, D(4) dopamine receptor (Homo sapiens, UniProt P21917).
T1 sequence (P21917 whole entry): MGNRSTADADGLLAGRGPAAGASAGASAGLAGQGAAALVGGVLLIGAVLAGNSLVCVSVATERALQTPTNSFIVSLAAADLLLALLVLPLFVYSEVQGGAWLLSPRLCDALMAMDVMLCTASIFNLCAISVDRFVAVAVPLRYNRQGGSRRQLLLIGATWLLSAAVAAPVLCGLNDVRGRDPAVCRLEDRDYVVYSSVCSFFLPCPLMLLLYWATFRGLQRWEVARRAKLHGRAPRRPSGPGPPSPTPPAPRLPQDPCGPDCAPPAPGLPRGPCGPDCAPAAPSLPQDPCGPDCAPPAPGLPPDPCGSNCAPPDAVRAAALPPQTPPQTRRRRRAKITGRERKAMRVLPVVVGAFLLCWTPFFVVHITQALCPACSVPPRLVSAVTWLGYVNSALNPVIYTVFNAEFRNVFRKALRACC
Nature of the assay: biochemical.

For another assay, the target named is D(3) dopamine receptor (Homo sapiens, UniProt P35462). Nature of the assay: Binding affinity for human Dopamine receptor D3 expressed in CHO K1 transfected cells using [3H]spiperone as radioligand. It counts as cell-based.
The target in assay [1] is T2, 5-hydroxytryptamine receptor 1A (Mus musculus, UniProt Q64264).
T2 sequence (Q64264 whole entry): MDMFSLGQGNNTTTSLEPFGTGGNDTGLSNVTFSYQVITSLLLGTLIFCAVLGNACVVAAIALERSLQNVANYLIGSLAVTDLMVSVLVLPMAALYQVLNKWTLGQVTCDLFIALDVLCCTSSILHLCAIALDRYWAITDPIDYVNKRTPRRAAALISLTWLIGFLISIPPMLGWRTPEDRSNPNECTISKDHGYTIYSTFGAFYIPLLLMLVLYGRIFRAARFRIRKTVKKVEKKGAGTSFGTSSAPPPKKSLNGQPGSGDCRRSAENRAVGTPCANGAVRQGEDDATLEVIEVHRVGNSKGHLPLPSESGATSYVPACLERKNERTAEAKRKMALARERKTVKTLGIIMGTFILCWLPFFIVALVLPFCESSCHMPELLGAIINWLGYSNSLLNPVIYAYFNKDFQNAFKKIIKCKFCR
Nature of the assay: Binding affinity at 5-hydroxytryptamine 1A receptor.

For assay [2], the target named is 5-hydroxytryptamine receptor 2A (Homo sapiens, UniProt P28223). In words: Binding affinity at 5-hydroxytryptamine 2A receptor.

pKi: −log10 of the molar value. Bounds are passed on as bounds.

D(2) dopamine receptor, sequence (P14416 whole entry): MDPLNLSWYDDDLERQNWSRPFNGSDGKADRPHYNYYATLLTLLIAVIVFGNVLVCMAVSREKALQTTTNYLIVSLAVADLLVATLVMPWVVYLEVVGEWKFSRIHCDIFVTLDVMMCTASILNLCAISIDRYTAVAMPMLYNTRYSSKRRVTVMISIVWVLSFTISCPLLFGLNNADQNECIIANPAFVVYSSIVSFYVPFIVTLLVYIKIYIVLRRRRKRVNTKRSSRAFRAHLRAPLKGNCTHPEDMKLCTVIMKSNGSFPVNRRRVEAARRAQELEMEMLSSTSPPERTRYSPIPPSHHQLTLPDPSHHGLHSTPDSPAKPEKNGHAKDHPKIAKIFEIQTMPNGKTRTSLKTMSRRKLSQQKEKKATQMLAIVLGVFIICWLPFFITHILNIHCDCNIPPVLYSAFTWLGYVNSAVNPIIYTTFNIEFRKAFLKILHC
D(3) dopamine receptor, sequence (P35462 whole entry): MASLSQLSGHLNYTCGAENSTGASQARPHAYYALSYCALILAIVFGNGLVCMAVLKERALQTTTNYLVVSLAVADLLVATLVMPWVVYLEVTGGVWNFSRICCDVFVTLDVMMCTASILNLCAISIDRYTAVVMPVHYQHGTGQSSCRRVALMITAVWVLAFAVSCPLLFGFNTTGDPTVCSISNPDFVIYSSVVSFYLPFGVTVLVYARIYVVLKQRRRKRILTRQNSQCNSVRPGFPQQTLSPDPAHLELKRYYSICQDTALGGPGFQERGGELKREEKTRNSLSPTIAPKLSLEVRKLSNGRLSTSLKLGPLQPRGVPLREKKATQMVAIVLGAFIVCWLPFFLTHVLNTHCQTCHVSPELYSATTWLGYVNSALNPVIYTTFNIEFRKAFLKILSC
5-hydroxytryptamine receptor 2A, sequence (P28223 whole entry): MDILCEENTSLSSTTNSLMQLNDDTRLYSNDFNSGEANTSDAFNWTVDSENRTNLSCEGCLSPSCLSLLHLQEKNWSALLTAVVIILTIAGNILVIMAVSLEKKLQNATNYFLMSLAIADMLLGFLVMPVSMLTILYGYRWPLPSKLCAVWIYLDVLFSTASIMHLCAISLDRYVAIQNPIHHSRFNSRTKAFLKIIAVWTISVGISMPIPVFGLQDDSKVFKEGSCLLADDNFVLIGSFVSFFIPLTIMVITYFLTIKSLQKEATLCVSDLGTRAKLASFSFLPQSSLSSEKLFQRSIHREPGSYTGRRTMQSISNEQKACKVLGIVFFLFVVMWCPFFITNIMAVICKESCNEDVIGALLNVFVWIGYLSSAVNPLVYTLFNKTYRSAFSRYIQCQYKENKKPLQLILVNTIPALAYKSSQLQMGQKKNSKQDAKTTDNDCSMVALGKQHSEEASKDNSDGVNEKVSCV
Description for D(4) dopamine receptor: Binding affinity for human Dopamine receptor D4 expressed in CHO K1 transfected cells using [3H]spiperone as radioligand

For the compound `N#Cc1ccccc1N1CCN(CNC(=O)c2cccc(Cl)c2)CC1`, the pKi at D(2) dopamine receptor was 6.05; at D(4) dopamine receptor, 7.47; on D(3) dopamine receptor, 5.64.

For `O=C(NCN1CCN(c2ccccc2Cl)CC1)c1ccc(Cl)cc1`, the negative logarithm of the Ki (pKi) at D(4) dopamine receptor is 8.28; on D(3) dopamine receptor it was 7.18.

Turning to `N#Cc1ccccc1N1CCN(CNC(=O)c2ccc(Cl)cc2)CC1`, the pKi at D(2) dopamine receptor was 6.03; at D(4) dopamine receptor, 8.26; at D(3) dopamine receptor, 6.22.

With `N#Cc1ccccc1N1CCN(CNC(=O)c2ccccc2)CC1`, the results for the negative-log Ki (pKi) at D(2) dopamine receptor, at D(4) dopamine receptor and at D(3) dopamine receptor were 5.38, 7.57 and below 5.52, respectively.

As to `COc1ccccc1N1CCN(CNC(=O)c2cccc(C)c2)CC1`, the figures for the pKi on D(2) dopamine receptor, on D(4) dopamine receptor and on D(3) dopamine receptor were 6.08, 8.17 and 5.61, respectively.

In the case of `O=C(NCN1CCN(c2ccccc2Cl)CC1)c1ccccc1`, the values for the pKi on D(2) dopamine receptor, at D(4) dopamine receptor and on D(3) dopamine receptor were 5.82, 7.49 and 6.75, respectively.

Consider `COc1ccccc1N1CCN(CNC(=O)c2ccc(C)cc2)CC1`, for which the pKi on D(2) dopamine receptor was 6.54; at D(4) dopamine receptor it was 8.11; at D(3) dopamine receptor it was 6.76.

Consider `Cc1ccc(C(=O)NCN2CCN(c3ccccc3Cl)CC2)cc1`, for which the pKi at D(2) dopamine receptor is 6.33; on D(4) dopamine receptor, 7.92; on D(3) dopamine receptor, 7.31.

`COc1ccccc1N1CCN(CNC(=O)c2cccc(Cl)c2)CC1`: the pKi was 6.35 at D(2) dopamine receptor, 7.82 at D(4) dopamine receptor and 5.84 on D(3) dopamine receptor.

Consider `Cc1cccc(C(=O)NCN2CCN(c3ccccc3Cl)CC2)c1`, for which the negative logarithm of the Ki (pKi) at D(2) dopamine receptor is 5.88; on D(4) dopamine receptor it was 7.57; at D(3) dopamine receptor it was 6.33.

Consider `O=C(NCN1CCN(c2ccccc2Cl)CC1)c1cccc(Cl)c1`, for which the pKi at D(2) dopamine receptor was 5.62; at D(4) dopamine receptor, 7.39; on D(3) dopamine receptor, 6.44.

As for `Cc1ccc(C(=O)NCN2CCN(c3ccccc3C#N)CC2)cc1`, the pKi on D(2) dopamine receptor was 5.94; at D(4) dopamine receptor it was 8.19; on D(3) dopamine receptor, 6.42.

For `COc1ccccc1N1CCN(CNC(=O)c2ccc(Cl)cc2)CC1`, the results for the negative-log Ki (pKi) on D(2) dopamine receptor, on D(4) dopamine receptor and at D(3) dopamine receptor were 6.46, 7.85 and 6.57, respectively.

As for `COc1ccccc1N1CCN(CNC(=O)c2ccccc2)CC1`, the pKi at D(4) dopamine receptor is 7.66; at D(3) dopamine receptor, 5.61.

As to `Cc1cccc(C(=O)NCN2CCN(c3ccccc3C#N)CC2)c1` [PD-168,077], the negative-log Ki (pKi) was 6.41 in assay [1], 5.40 in assay [2], 5.43 at D(2) dopamine receptor and 5.55 on D(3) dopamine receptor.
